Literature values in US20250268885A1, “ORAL COMPOSITION COMPRISING NICOTINAMIDE” (CONARIS Research Institute AG, priority 2022, published 2025).

Conditions: sources collected in PubChem

For NC(=O)c1cccnc1 [Nicotinamide, nicotinamide], the “solubility relative to diclofenac sodium” value is given as “several orders of magnitude higher”.
